Tests used:
EGFR = target: T1, EGFR (Homo sapiens, UniProt P00533); assay: EGFR Kinase Assay; format: biochemical; settings: for inhibition at 2 µM: test concentration of 2 μM, compounds without an IC50, read-out: EGFR inhibition in percent; for IC50: GST-EGFR, ATP 5 μM
T1 construct: The intracellular portion of EGFR started at nucleotide 2189 (corresponding to amino acid 667) and ended at the termination codon; made in house; host or cells: Sf9 insect cells (baculovirus)
Description: The EGFR kinase used was a fusion of Glutathione-S-Transferase (GST) and a PCR amplified intracellular portion of EGFR (Accession Number NM_005228). The intracellular portion of EGFR started at nucleotide 2189 (corresponding to amino acid 667) and ended at the termination codon. The portion was PCR amplified with primers that added the lambda attB sequences to each end, recombined into an entry vector, then into a GST destination vector (as described in Gateway Technologies Manual by Invitrogen Corporation, Carlsbad, Calif.).
The destination vector was recombined in the DH10BAC strain of bacteria to produce a bacmid. The bacmid was transfected into Sf 9 cells and the supernatant containing the baculovirus was collected. The GSTEGFR protein was purified using large cultures of Sf 9 cells infected with stock virus. After an appropriate period of time, the cells were collected and lysed. The GSTEGFR was then purified from the lysate on Glutathione-Sepharose columns (as described by Amersham Biosciences, Buckinghamshire, United Kingdom).
The EGFR substrate was prepared by biotinylating polyGluTyr (128 mg) (Sigma, St. Louis, Mo.) in a 1×PBS buffer incubated together with a 12-fold molar excess of Sulfo-NHS-LC-Biotin on ice for at least 2 hrs. The free biotin was separated from the biotinylated polyGluTyr on a gel filtration column.
A mixture of a 10× kinase buffer (500 mM Tris at pH 8.0, 100 mM Magnesium Chloride and 1 mM Sodium Vanadate), DTT (1 mM final from 500 mM stock), ATP (5 μM final from 10 mM stock), biotinylated polyGluTyr (10 μg/μL stock), γ-^33P ATP (10 μCl/μL stock) and water was added to each well (for a total of 90 μL/well) of a Streptavidin Flashplate (Perkin Elmer, Wellesley, Mass.).
Test compound in 100% DMSO (2 μL) was added to the appropriate wells. Diluted GSTEGFR (1:300 dilution in 50 mM Tris at pH 8.0 and 0.1% bovine serum albumin) (10 μL) was added to the wells to initiate the reactions.
The plates were incubated at 30° C. for 1 hr with shaking. The reacted contents were removed and the plates were sequentially washed three times with a 1×PBS stop buffer (300 μL without Magnesium and Calcium) and 100 mM EDTA. After the final wash, the same stop buffer (200 μL) was added to the wells. The plates were then sealed and read on the TopCount scintillation counter.
Test compounds were assayed in triplicate at 16 concentrations at half-log dilutions starting at 200 uM. A maximum and minimum signal for the assay was determined on each plate. The percent inhibition of a test compound was calculated according to the formula: […]
For a series of test concentrations, the IC50 was derived by graphing percent inhibition against the log of the concentrations tested for a given compound. For those compounds without an IC50, the inhibition values in percent are shown at a test concentration of 2 μM. For compounds with multiple values, each value represents a separate assay result.

HER-2 = target: T2, HER-2 (Homo sapiens, UniProt P04626); assay: HER-2 Kinase Assay; format: biochemical; settings: for inhibition at 1 µM: test concentration of 1 μM; for IC50: value in parentheses
T2 construct: His6 with thrombin site (N); purchased Proqinase (Freiburg, Germany)
Method: The HER-2 kinase used was purified at Proqinase (Freiburg, Germany) from a construct that consisted of a fusion of GST (Glutathione-S-Transferase), HIS6-Thrombin and the nucleotides encoding amino acids 679 to 1255 of HER-2 (Accession Number M11730).
A mixture of a 10× kinase reaction buffer (600 mM Hepes at pH 7.5, 30 mM Magnesium Chloride, 0.03 mM Sodium Vanadate and 500 μg/mL PEG 20,000), DTT (1.2 mM final from a 10 mM stock), APT (1 μM from a 10 mM stock), biotinylated polyGluTyr (1.5 ng/μL final from stock of 1 μg/μL) prepared by Upstate Biotechnologies, Lake Placid, N.Y.), Manganese Chloride (3 mM final from a 1 M stock), γ-^33P-ATP (10 μCl/μL stock) and water (70 μL/well) was added to each well of a Streptavidin Flashplate (Cat. # SMP103, NEN, Boston, Mass.).
Test compound stock (1 μL) was added to the appropriate wells. Diluted GSTHER2 kinase (6.7 ng/μL diluted into 50 mM Tris-HCl at pH 8.0 and 0.1% bovine serum albumin) (30 μL) was added (total volume of 200 ng/well) to initiate the reactions.
The reaction plates were incubated at 30° C. for 1 hr. The reaction was terminated by aspirating the reaction mixture from the plate wells and washing the wells three times with a 1×PBS stop buffer (300 μL) and 100 mM EDTA. After the final wash, the same stop buffer (200 μL) was again added to the wells. The plates were then sealed and read on the TopCount scintillation counter.
The Her-2 inhibition values were derived according to the procedure described in Example 164 and are shown as percent in Table 4 at a test concentration of 1 μM. For those compounds with an IC50, the IC50 value in μM is shown in parentheses. For compounds with multiple test values, each value represents a separate assay result.

T2 sequence (P04626 679-1255): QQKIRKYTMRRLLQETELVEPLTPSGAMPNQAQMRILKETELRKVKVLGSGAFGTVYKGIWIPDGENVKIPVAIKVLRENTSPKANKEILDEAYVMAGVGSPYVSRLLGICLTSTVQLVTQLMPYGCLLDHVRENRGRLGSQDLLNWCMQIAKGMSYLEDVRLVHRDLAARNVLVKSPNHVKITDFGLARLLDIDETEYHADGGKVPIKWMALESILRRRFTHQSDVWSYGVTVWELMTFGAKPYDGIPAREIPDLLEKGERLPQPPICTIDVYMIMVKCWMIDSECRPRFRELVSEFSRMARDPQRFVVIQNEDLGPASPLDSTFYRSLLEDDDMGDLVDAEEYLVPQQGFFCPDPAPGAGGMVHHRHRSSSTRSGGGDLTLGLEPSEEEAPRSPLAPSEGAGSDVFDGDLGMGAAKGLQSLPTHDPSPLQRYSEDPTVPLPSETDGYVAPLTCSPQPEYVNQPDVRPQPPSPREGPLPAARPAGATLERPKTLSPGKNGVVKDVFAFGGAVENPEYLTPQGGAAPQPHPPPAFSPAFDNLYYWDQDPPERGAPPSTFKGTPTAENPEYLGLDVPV
T1 sequence (P00533 669-1210 limits assumed): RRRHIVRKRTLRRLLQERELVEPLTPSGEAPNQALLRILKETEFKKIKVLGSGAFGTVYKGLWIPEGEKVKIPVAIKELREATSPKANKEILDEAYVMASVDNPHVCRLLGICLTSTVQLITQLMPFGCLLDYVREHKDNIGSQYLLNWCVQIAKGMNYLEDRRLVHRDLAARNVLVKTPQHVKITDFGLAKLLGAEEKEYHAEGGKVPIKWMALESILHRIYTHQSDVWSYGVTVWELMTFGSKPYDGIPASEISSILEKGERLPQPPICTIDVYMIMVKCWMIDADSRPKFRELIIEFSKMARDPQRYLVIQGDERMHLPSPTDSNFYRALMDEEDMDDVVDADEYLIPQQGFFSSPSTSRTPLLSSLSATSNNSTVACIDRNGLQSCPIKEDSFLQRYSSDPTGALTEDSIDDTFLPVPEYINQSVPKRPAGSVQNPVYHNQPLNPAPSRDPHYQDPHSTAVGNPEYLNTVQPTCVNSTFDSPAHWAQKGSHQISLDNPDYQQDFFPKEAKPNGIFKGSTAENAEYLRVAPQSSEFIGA

Compound	inhibition at 2 µM (EGFR)	inhibition at 1 µM (HER-2)	IC50 (EGFR)	IC50 (HER-2)
COc1cc(NC(=O)c2sc3ncnc4c3c2NC(=O)N4c2cc(Cl)ccc2OC)ccc1OCCN1CCCCC1 [Cpd 74, 5-(5-chloro-2-methoxy-phenyl)-4-oxo-4,5-dihydro-3H-1-thia-3,5,6,8-tetraaza-acenaphthylene-2-carboxylic acid [3-methoxy-4-(2-piperidin-1-yl-ethoxy)-phenyl]-amide]	56%	4%		
COc1ccc(Cl)cc1N1C(=O)Nc2c(C(=O)Nc3ccc(CN(C)C[C@H]4CCCO4)cc3)sc3ncnc1c23 [Cpd 75, 5-(5-chloro-2-methoxy-phenyl)-4-oxo-4,5-dihydro-3H-1-thia-3,5,6,8-tetraaza-acenaphthylene-2-carboxylic acid [4-({methyl-[(2R)-tetrahydro-furan-2-ylmethyl]-amino}-methyl)-phenyl]-amide]	46%	2%		
COc1cc(N2C(=O)Nc3c(C(=O)Nc4ccc(CN5CCCCC5)cc4)sc4ncnc2c34)ccc1Br [Cpd 81, 5-(4-bromo-3-methoxy-phenyl)-4-oxo-4,5-dihydro-3H-1-thia-3,5,6,8-tetraaza-acenaphthylene-2-carboxylic acid (4-piperidin-1-ylmethyl-phenyl)-amide]			498 nM	695 nM
COc1cc(N2C(=O)Nc3c(C(=O)Nc4ccc(CN5CCOCC5)cc4)sc4ncnc2c34)ccc1Br [Cpd 84, 5-(4-bromo-3-methoxy-phenyl)-4-oxo-4,5-dihydro-3H-1-thia-3,5,6,8-tetraaza-acenaphthylene-2-carboxylic acid (4-morpholin-4-ylmethyl-phenyl)-amide]			776 nM	518 nM
COc1cc(NC(=O)c2sc3ncnc4c3c2NC(=O)N4c2ccc(Oc3cccc(F)c3)c(Cl)c2)ccc1OCCN1CCCCC1 [Cpd 161, 5-[3-chloro-4-(3-fluoro-phenoxy)-phenyl]-4-oxo-4,5-dihydro-3H-1-thia-3,5,6,8-tetraaza-acenaphthylene-2-carboxylic acid [3-methoxy-4-(2-piperidin-1-yl-ethoxy)-phenyl]-amide]			23 nM	699 nM
O=C(Nc1ccc(C(O)CN2CCOCC2)cc1)c1sc2ncnc3c2c1NC(=O)N3c1ccc(Oc2ccccc2)cc1 (centres unmarked) [Cpd 174, 4-oxo-5-(4-phenoxy-phenyl)-4,5-dihydro-3H-1-thia-3,5,6,8-tetraaza-acenaphthylene-2-carboxylic acid [4-(1-hydroxy-2-morpholin-4-yl-ethyl)-phenyl]-amide]			18 nM	818 nM
CN1CCC(NC(=O)c2sc3ncnc4c3c2NC(=O)N4c2ccc3c(cnn3Cc3cccc(F)c3)c2)CC1 [Cpd 177, 5-[1-(3-fluoro-benzyl)-1H-indazol-5-yl]-4-oxo-4,5-dihydro-3H-1-thia-3,5,6,8-tetraaza-acenaphthylene-2-carboxylic acid (1-methyl-piperidin-4-yl)-amide]			75 nM	1500 nM
CCOC(=O)c1sc2ncnc3c2c1NC(=O)N3C(C)c1ccc(Br)cc1 (centres unmarked) [Cpd 179, 5-[1-(4-bromo-phenyl)-ethyl]-4-oxo-4,5-dihydro-3H-1-thia-3,5,6,8-tetraaza-acenaphthylene-2-carboxylic acid ethyl ester]	0.7%			> 100000 nM
COc1ccc(N2C(=O)Nc3c(C(=O)Nc4ccc(CN5CCOCC5)cc4)sc4ncnc2c34)cc1Br [Cpd 181, 5-(3-bromo-4-methoxy-phenyl)-4-oxo-4,5-dihydro-3H-1-thia-3,5,6,8-tetraaza-acenaphthylene-2-carboxylic acid (4-morpholin-4-ylmethyl-phenyl)-amide]			887 nM	2190 nM
COc1ccc(N2C(=O)Nc3c(C(=O)Nc4ccc(CN5CCCCC5)cc4)sc4ncnc2c34)cc1Br [Cpd 182, 5-(3-bromo-4-methoxy-phenyl)-4-oxo-4,5-dihydro-3H-1-thia-3,5,6,8-tetraaza-acenaphthylene-2-carboxylic acid (4-piperidin-1-ylmethyl-phenyl)-amide]			880 nM	1680 nM
COc1ccc(N2C(=O)Nc3c(C(=O)Nc4ccc(CN5CCOCC5)c(OC)c4)sc4ncnc2c34)cc1Br [Cpd 183, 5-(3-bromo-4-methoxy-phenyl)-4-oxo-4,5-dihydro-3H-1-thia-3,5,6,8-tetraaza-acenaphthylene-2-carboxylic acid (3-methoxy-4-morpholin-4-ylmethyl-phenyl)-amide]			420 nM	980 nM

The remaining compounds from weak to strong by IC50 (HER-2), led by results:

inhibition at 2 µM (EGFR)	inhibition at 1 µM (HER-2)	IC50 (EGFR)	IC50 (HER-2)	Compound
		83 nM	350 nM	COc1cc(NC(=O)c2sc3ncnc4c3c2NC(=O)N4c2ccc(OCc3ccccn3)c(Cl)c2)ccc1OCCN1CCOCC1 [Cpd 86, 5-[3-chloro-4-(pyridin-2-ylmethoxy)-phenyl]-4-oxo-4,5-dihydro-3H-1-thia-3,5,6,8-tetraaza-acenaphthylene-2-carboxylic acid [3-methoxy-4-(2-morpholin-4-yl-ethoxy)-phenyl]-amide]
		29 nM	325 nM	Cc1ccc(N2C(=O)Nc3c(C(=O)Nc4ccc(CN5CCCCC5)cc4)sc4ncnc2c34)cc1Br [Cpd 111, 5-(3-bromo-4-methyl-phenyl)-4-oxo-4,5-dihydro-3H-1-thia-3,5,6,8-tetraaza-acenaphthylene-2-carboxylic acid (4-piperidin-1-ylmethyl-phenyl)-amide]
		23 nM	155 nM	O=C(Nc1ccc(CN2CCCCC2)cc1)c1sc2ncnc3c2c1NC(=O)N3c1ccc(Oc2cccc(F)c2)c(Cl)c1 [Cpd 160, 5-[3-chloro-4-(3-fluoro-phenoxy)-phenyl]-4-oxo-4,5-dihydro-3H-1-thia-3,5,6,8-tetraaza-acenaphthylene-2-carboxylic acid (4-piperidin-1-ylmethyl-phenyl)-amide]
		95 nM	112 nM	O=C(Nc1ccc(CN2CCOCC2)cc1)c1sc2ncnc3c2c1NC(=O)N3c1ccc(OCc2ccccn2)c(Br)c1 [Cpd 180, 5-[3-bromo-4-(pyridin-2-ylmethoxy)-phenyl]-4-oxo-4,5-dihydro-3H-1-thia-3,5,6,8-tetraaza-acenaphthylene-2-carboxylic acid (4-morpholin-4-ylmethyl-phenyl)-amide]
		26 nM	82 nM	O=C(Nc1ccc(CN2CCOCC2)cc1)c1sc2ncnc3c2c1NC(=O)N3c1ccc(Oc2cccc(F)c2)c(Cl)c1 [Cpd 162, 5-[3-chloro-4-(3-fluoro-phenoxy)-phenyl]-4-oxo-4,5-dihydro-3H-1-thia-3,5,6,8-tetraaza-acenaphthylene-2-carboxylic acid (4-morpholin-4-ylmethyl-phenyl)-amide]

Source: patent US7579356B2, “Thia-tetraazaacenaphthylene kinase inhibitors” (Janssen Pharmaceutica NV, priority 2005, dated 2009)
